# Biological target: T1, gastrin receptor (Rattus norvegicus, UniProt P30553)
# T1 construct: The stomach was excised and flushed with ca. 1 ml of unbuffered physiological saline solution; from tissue; host or cells: isolated whole stomach of immature rats (ca. 21 days old)
# T1 sequence (P30553 1-452): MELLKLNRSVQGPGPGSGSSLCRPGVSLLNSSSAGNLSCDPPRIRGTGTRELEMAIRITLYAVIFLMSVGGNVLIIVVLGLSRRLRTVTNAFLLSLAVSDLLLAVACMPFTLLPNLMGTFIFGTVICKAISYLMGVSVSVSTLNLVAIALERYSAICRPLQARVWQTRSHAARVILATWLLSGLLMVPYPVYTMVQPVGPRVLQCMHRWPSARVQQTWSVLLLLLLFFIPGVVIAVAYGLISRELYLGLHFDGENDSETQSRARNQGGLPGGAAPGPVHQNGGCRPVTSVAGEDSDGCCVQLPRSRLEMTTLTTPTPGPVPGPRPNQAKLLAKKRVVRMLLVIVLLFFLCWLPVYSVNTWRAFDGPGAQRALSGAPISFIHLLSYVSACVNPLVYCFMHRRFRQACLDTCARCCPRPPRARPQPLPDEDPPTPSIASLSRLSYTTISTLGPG
# Assay: gastrin antagonist activity in immature rat stomach assay (pentagastrin dose-response, acid secretion)
# Details: isolated immature rat stomach, cumulative pentagastrin dose-response curves
# Method: The compounds of the examples were also tested for gastrin antagonist activity in an immature rat stomach assay. The procedure was as follows:
# The oesophagus of immature rats (33-50 g, ca. 21 days old) was ligated at the level of the cardiac sphincter and the duodenal sphincter was cannulated. The stomach was excised and flushed with ca. 1 ml of unbuffered physiological saline solution. The fundus was punctured and cannulated. A further 4-5 ml of unbuffered solution was flushed through the stomach to ensure the preparation was not leaking. The stomach was lowered into a jacketed organ bath containing 40 ml of buffered solution containing 3×10^−8 M 5-methylfurmethide, maintained at 37° and gassed vigorously with 95% O2/5% CO2. The stomach was continuously perfused at a rate of 1 ml min^−1 with unbuffered solution gassed with 100% O2 with the perfusate passing over an internally referenced pH-electrode fixed 12 cm above the stomach.
# After 120 min of stabilisation the drugs were added directly to the serosal solution in the organ bath and after a further 60 min cumulative pentagastrin dose-response curves were started. Changes in acid secretion were monitored and the curves analysed according to Black et al., Br. J. Pharmacol., 1985, 86, 581.
row,Compound,Gastrin pKb
1,"O=C(O)c1cccc(NC(=O)c2nc([C@H]3CC4C=C[C@H]3C4)[nH]c2COC23CC4CC(CC(C4)C2)C3)c1 [Example 295, exo-3-{[5-(Adamantan-1-yloxymethyl)-2-((1R,2S)-bicyclo[2.2.1]hept-5-en-2-yl)-1H-imidazole-4-carbonyl]-amino}-benzoic Acid]",8.61
2,(3-{[5-(Adamantan-1-yloxymethyl)-2-cyclohet-4-enyl-1H-imidazole-4-carbonyl]-amino}-phenyl)-acetic Acid [Example 231],7.49
3,Cc1ccc(NC(=O)c2nc(C3CCCCC3)[nH]c2CCC23CC4CC(CC(C4)C2)C3)cc1C(=O)O [Example 107],7.65

# Same assay, conditions: isolated immature rat stomach, cumulative pentagastrin dose-response curves, read-out: Gastrin pKb (converted)
row,Kb,Compound
1,0.0708 µM,"O=C(O)/C=C/c1cccc(NC(=O)c2nc(C3CCCCC3)[nH]c2CCC23CC4CC(CC(C4)C2)C3)c1 [Example 259, trans-3-(3-{[5-(2-Adamantan-1-yl-ethyl)-2-cyclohexyl-1H-imidazole-4-carbonyl]-amino}-phenyl)-acrylic Acid]"
2,0.224 µM,"O=C(Nc1cccc(S(=O)(=O)O)c1)c1nc(C2CCCCC2)[nH]c1CCC12CC3CC(CC(C3)C1)C2 [Example 268, 3-{[5-(2-Adamantan-1-yl-ethyl)-2-cyclohexyl-1H-imidazole-4-carbonyl]-amino}-benzenesulfonic Acid]"
3,0.0692 µM,"O=C(O)c1cccc(NC(=O)c2nc(C3C4CC5CC(C4)CC3C5)[nH]c2CCC23CC4CC(CC(C4)C2)C3)c1 (stereo not drawn) [Example 207, 3-{[2-Adamantan-2-yl-5-(2-adamantan-1-yl-ethyl)-1H-imidazole-4-carbonyl]-amino}benzoic Acid]"
4,0.186 µM,"CCOC(=O)Cn1c(-c2ccccc2C)nc(C(=O)Nc2cccc(C(=O)O)c2)c1CCC12CC3CC(CC(C3)C1)C2 [Example 250, 3-{[5-(2-Adamantan-1-yl-ethyl)-1-ethoxycarbonylmethyl-2-o-tolyl-1H-imidazole-4-carbonyl]-amino}-benzoic Acid]"
5,0.000661 µM,"O=C(O)c1cccc(NC(=O)c2nc(C34C=CC(CC3)CC4)[nH]c2COC23CC4CC(CC(C4)C2)C3)c1 [Example 225, 3-{[5-(Adamantan-1-yloxymethyl)-2-bicyclo[2.2.2]oct-2-en-1-yl-1H-imidazole-4-carbonyl]-amino}-benzoic Acid]"
6,0.0135 µM,"Cc1cc(C)c(-c2nc(C(=O)Nc3cccc(C(=O)O)c3)c(COC34CC5CC(CC(C5)C3)C4)[nH]2)c(C)c1 [Example 226, 3-{[5-(Adamantan-1-yloxymethyl)-2-(2,4,6-trimethyl-phenyl)-1H-imidazole-4-carbonyl]-amino}-benzoic Acid]"
7,0.219 µM,"Cc1cc(C)c(-c2nc(C(=O)Nc3cccc(CC(=O)O)c3)c(CCC34CC5CC(CC(C5)C3)C4)[nH]2)c(C)c1 [Example 157, (3-{[5-(2-Adamantan-1-yl-ethyl)-2-(2,4,6-trimethyl-phenyl)-1H-imidazole-4-carbonyl]-amino}-phenyl)-acetic Acid]"
8,0.0204 µM,"O=C(O)c1cc(NC(=O)c2nc(C3CCCCC3)[nH]c2COC23CC4CC(CC(C4)C2)C3)ccc1F [Example 299, 5-{[5-(Adamantan-1-yloxymethyl)-2-cyclohexyl-1H-imidazole-4-carbonyl]-amino}-2-fluoro-benzoic Acid]"
9,1.15 µM,"O=C(O)CCc1ccc(NC(=O)c2nc(C3CCCCC3)[nH]c2CCC23CC4CC(CC(C4)C2)C3)cc1 [Example 283, 3-(4-{[5-(2-Adamantan-1-yl-ethyl)-2-cyclohexyl-1H-imidazole-4-carbonyl]-amino}-phenyl)-propionic Acid]"
10,0.0186 µM,"O=C(O)c1cccc(NC(=O)c2c(COC34CC5CC(CC(C5)C3)C4)nc(C3CCCCC3)n2O)c1 [Example 308, 3-{[5-(Adamantan-1-yloxymethyl)-2-cyclohexyl-3-hydroxy-3H-imidazole-4-carbonyl]-amino}-benzoic Acid]"
11,0.0427 µM,"Cc1cc(C)c(-c2nc(C(=O)Nc3ccc(C)c(C(=O)O)c3)c(CCC34CC5CC(CC(C5)C3)C4)[nH]2)c(C)n1 [Example 183, 5-{[5-(2-Adamantan-1-yl-ethyl)-2-(2,4,6-trimethyl-pyridine-3-yl)-1H-imidazole-4-carbonyl]-amino}-2-methyl-benzoic Acid]"
12,0.00575 µM,"O=C(O)c1cccc(NC(=O)c2nc(C3(CO)CCCCC3)[nH]c2CCC23CC4CC(CC(C4)C2)C3)c1 [Example 204, 3-{[5-(2-Adamantan-1-yl-ethyl)-2-(1-hydroxymethyl-cyclohexyl)-1H-imidazole-4-carbonyl]-amino}-benzoic Acid]"
13,0.145 µM,"Cc1ccccc1-c1nc(CNc2cccc(C(=O)O)c2)c(CCC23CC4CC(CC(C4)C2)C3)n1C [Example 279, 3-{[5-(2-Adamantan-1-yl-ethyl)-1-methyl-2-o-tolyl-1H-imidazol-4-ylmethyl]-amino}-benzoic Acid]"
14,0.0191 µM,"CN(CC(=O)O)C(=O)c1cccc(NC(=O)c2nc(C3CCCCC3)[nH]c2CCC23CC4CC(CC(C4)C2)C3)c1 [Example 266, [(3-{[5-(2-Adamantan-1-yl-ethyl)-2-cyclohexyl-1H-imidazole-4-carbonyl]-amino}-benzoyl)-methyl-amino]-acetic Acid]"
15,0.0245 µM,"O=C(O)c1cccc(NC(=O)c2nc(C3CCCCC3)[nH]c2COCC23CC4CC(CC(C4)C2)C3)c1 [Example 309, 3-{[5-(Adamantan-1-ylmethoxymethyl)-2-cyclohexyl-1H-imidazole-4-carbonyl]-amino}-benzoic Acid]"
16,0.0347 µM,"Cc1cc(C)c(-c2nc(COC34CC5CC(CC(C5)C3)C4)c(C(=O)Nc3cccc(C(=O)O)c3)n2O)c(C)c1 [Example 312, 3-{[5-(Adamantan-1-yloxymethyl)-2-(2,4,6-trimethyl-phenyl)-3-hydroxy-3H-imidazole-4-carbonyl]-amino}-benzoic Acid]"
17,0.024 µM,"Cc1ccccc1-c1nc(C(=O)Nc2cccc(C(=O)O)c2)c(COC23CC4CC(CC(C4)C2)C3)[nH]1 [Example 304, 3-{[5-(Adamantan-1-yloxymethyl)-2-o-tolyl-1H-imidazole-4-carbonyl]-amino}-benzoic Acid]"
18,0.0977 µM,"O=C(O)CCc1c(F)ccc(NC(=O)c2nc(C3CCCCC3)[nH]c2CCC23CC4CC(CC(C4)C2)C3)c1F [Example 284, 3-(3-{[5-(2-Adamantan-1-yl-ethyl)-2-cyclohexyl-1H-imidazole-4-carbonyl]-amino}-2,6-difluoro-phenyl)-propionic Acid]"
19,0.00209 µM,"Cc1ccc(NC(=O)c2nc(C3CCCCCC3)[nH]c2COC23CC4CC(CC(C4)C2)C3)cc1C(=O)O [Example 296, 5-{[5-(Adamantan-1-yloxymethyl)-2-cycloheptyl-1H-imidazole-4-carbonyl]-amino}-2-methyl-benzoic Acid]"
20,0.148 µM,"Cc1c(NC(=O)c2nc(C3CCCCC3)[nH]c2COC23CC4CC(CC(C4)C2)C3)cccc1C(=O)O [Example 218, 3-{[5-(Adamantan-1-yloxymethyl)-2-cyclohexyl-1H-imidazole-4-carbonyl]-amino}-2-methyl-benzoic Acid]"
21,0.912 µM,"COc1cc(OC)c(-c2nc(C(=O)Nc3cccc(C(=O)O)c3)c(CCC34CC5CC(CC(C5)C3)C4)[nH]2)c(OC)c1 [Example 160, 3-{[5-(2-Adamantan-1-yl-ethyl)-2-(2,4,6-trimethoxy-phenyl)-1H-imidazole-4-carbonyl]-amino}-benzoic Acid]"
